Structures can show the parent of a compound that is named as a salt.
How the values were obtained:
Mus musculus [1] = assay: Hypoglycemic activity in Swiss-Webster mouse assessed as change plasma glucose level at 250 mg/kg, ip after 4 hrs; type: functional; details: route intraperitoneal
Artemia = assay: Toxicity in brine shrimp; type: organism-based; details: in vivo
[2] = Acute toxicity in po dosed mouse; type: organism-based; details: in vivo
[3] = Acute toxicity in ip dosed mouse; type: organism-based; details: in vivo
Homo sapiens [4] = species on record: Homo sapiens; assay: Antihypercholesterolemic activity in patient with familial hypercholesterolemia assessed as decrease in plasma cholesterol at 2250 mg/day in 3 divided doses for 8 weeks; type: functional; parameters: scale not given: the % may be the effect or the level left
Homo sapiens [5] = species on record: Homo sapiens; assay: Antihypercholesterolemic activity in patient with familial hypercholesterolemia assessed as decrease in plasma cholesterol at 3000 mg/day in 3 divided doses for 8 weeks; type: functional; parameters: scale not given: the % may be the effect or the level left
Homo sapiens [6] = species on record: Homo sapiens; assay: Toxicity in patient with familial hypercholesterolemia at 750 to 2250 mg/day in 3 divided doses for 8 weeks; type: organism-based; details: in vivo, 1344 h
Mus musculus [7] = assay: Hypoglycemic activity in Swiss-Webster mouse assessed as change plasma glucose level at 62.5 mg/kg, ip after 4 hrs; type: functional; details: route intraperitoneal
Mus musculus [8] = assay: Hypoglycemic activity in Swiss-Webster mouse assessed as change plasma glucose level at 125 mg/kg, ip after 4 hrs; type: functional; details: route intraperitoneal

## COC(=O)C(O)(CC(=O)O)CC(=O)O
Mus musculus [1]
  Activity: -7.4%

## CCOC(=O)C(O)(CC(=O)O)CC(=O)O
Mus musculus [1]
  Activity: -6.6%

## COC(=O)CC(O)(CC(=O)OC)C(=O)OC
Mus musculus [1]
  Activity: 29%

## COc1cc(-c2oc3cc(O[C@@H]4O[C@H](CO)[C@@H](O)[C@H](O)[C@H]4O)c(OC)c(O)c3c(=O)c2OC)cc(OC)c1O
Mus musculus [1]
  Activity: -1%
Artemia
  LC50: 420 ppm

## CCOC(=O)CC(O)(CC(=O)O)C(=O)OCC (stereo not drawn)
Mus musculus [1]
  Activity: -17.3%

## COC(=O)CC(O)(CC(=O)O)C(=O)OC (stereo not drawn)
Mus musculus [1]
  Activity: 35.8%

## O=C(O)CC(O)(CC(=O)O)C(=O)O [CITRIC ACID]
Mus musculus [1]
  Activity: 47.3%
Artemia
  LC50: 50 ppm

## Cc1cn([C@H]2C[C@H](O)[C@@H](CO)O2)c(=O)[nH]c1=O [DOXRIBTIMINE]
Mus musculus [1]
  Activity: 25.5%
Artemia
  LC50: > 1000 ppm

## CC(O)(CC(=O)O)CC(=O)O [MEGLUTOL]
Mus musculus [1]
  Activity: -41.7%
Artemia
  LC50: 228 ppm
[2]
  LD50: 7330 mg/kg
[3]
  LD50: 3230 mg/kg
Homo sapiens [4]
  Activity: 11%
Homo sapiens [5]
  Activity: 13%
Homo sapiens [6]
  Activity: Non-toxic
Mus musculus [7]
  Activity: 7.9%
Mus musculus [8]
  Activity: -21%

## O=C(O)CCC(=O)O [SUCCINIC ACID]
Mus musculus [1]
  Activity: 9.9%
Artemia
  LC50: 40 ppm

## CCOC(=O)CC(O)(CC(=O)OCC)C(=O)OCC [TRIETHYL CITRATE]
Mus musculus [1]
  Activity: -13.6%
